Reference: patent publication US8124794B2, “Method for the asymmetric synthesis of beta-lactone compounds” (Sanford-Burnham Medical Research Institute, priority 2006, dated 2012)
Like-named read-outs stand apart in the source and are kept apart here.

How the values were obtained:
[1] = biological target: T1, recombinant thioesterase domain of fatty acid synthase (FAS TE) (Homo sapiens, UniProt P49327); experiment: Fluorogenic assay (4-MUH substrate) for inhibition of recombinant FAS thioesterase domain; assay type: biochemical
T1 construct: Expression of the recombinant thioesterase domain of FAS was performed as described previously
From the text: The synthetic fluorogenic substrate, 4-methylumbelliferyl heptanoate (4-MUH), was purchased from Sigma (St. Louis, Mo.). […] Results are the average of triplicate time points.

[2] = system: hydrolase migrating at 31 kDa; experiment: FP-TAMRA labeling of serine hydrolases in mammary cell lysates; assay type: biochemical, human
Method: (§1) The serine hydrolase activity profiles of the prostate cell lines were measured using the fluorophosphonate probe fp-PEG-TAMRA using methods described previously (Liu et al., supra; Kidd et al., supra). Briefly, 40 μl of a 1 mg/ml solution of the soluble fractions of each cell lines were treated with 2 μM fp-PEG-TAMRA for one hour at ambient temperature. The labeling reactions were stopped by the addition of Laemmli buffer followed by boiling for 5 minutes. As a control for non-specific reaction of the probe, a duplicate sample was boiled for ten minutes prior to labeling with fp-PEG-TAMRA to denature all enzymatic activity. The labeled samples were resolved by 10% SDS-PAGE and visualized by scanning with a Hitachi flatbed scanner at 605 nm.
(§2) Ebelactone A and B stocks were made in DMSO. Orlistat was made in EtOH. Cell lysate were generated at 1 mg/ml as described above. Samples (40 μg) were incubated with inhibitors for twenty minutes prior to addition of fp-PEG-TAMRA. The final concentration of DMSO or EtOH in each reaction was 10%. The labeling reactions were stopped by the addition of Laemmli sample buffer and samples were resolved on 10% SDS-PAGE and visualized.
(§3) Labeling of serine hydrolases in the cell lysates with FP-TAMRA was challenged with each of the beta-lactones Inhibition experiments were performed under pre-steady state conditions, so that relative IC50 values could be compared. […] Tetrahydrolipstatin is selective for the hydrolase at 270 kDa that is expressed in breast cancer cell lines.

[3] = system: hydrolase expressed at 28 kDa; experiment: as above; assay type: biochemical, human
Method: as §1, §2, §3

HUVEC = HUVEC proliferation by BrdU incorporation; assay type: cell-based, human; details: for IC50: Homo sapiens, HUVEC, read-out: concentration required for a half maximal effect on proliferation
Method: The effect of orlistat on HUVEC proliferation induced by several mitogenic stimuli was assessed by BrdU incorporation. Orlistat and mitogen were added simultaneously to serum-starved cells, and BrdU included during the period equivalent to the second round of the cell cycle after mitogen addition. Orlistat inhibited proliferation induced by complete endothelial medium (containing a undefined mixture of mitogens), by bFGF and by VEGF. […] Cell proliferation was measured by incorporation of BrdU. HUVEC were seeded in 96 well plates at a density of 2000 cells/well and cultured in Endothelial Growth medium (EGM; Clonetics, Walkerville, Md.) for 24 h at 37° C. Cells were serum-starved for further 24 h in Endothelial Basal Medium (EBM; Clonetics, Walkerville, Md.)+0.2% FCS. Medium was replaced with orlistat (40-0 uM) diluted in (A) EGM, (B) EBM+2% FCS+bFGF (5 ng/ml), (C) EBM+2% FCS+VEGF (20 ng/ml) or (D) EBM+0.2% FCS. Cells were incubated 48 h at 37 deg C., with BrdU present during the final 24 h. Medium was removed, the cell monolayers fixed, and BrdU incorporation measured by ELISA. Proliferation was expressed as a percentage of that measured in the absence of orlistat.

MDA-MB-435 cells = experiment: Apoptosis by DNA fragmentation ELISA; details: Homo sapiens, MDA-MB-435, read-out: half-maximal apoptotic response
[4] = system: cellular fatty acid synthesis in MDA-MB-435 cells; experiment: [14C]-acetate incorporation into cellular fatty acids, MDA-MB-435 cells; details: MDA-MB-435, 100 μM
Method: Cells were seeded at density of 2.5×10^4 cells/well in 24-well plates. Prior to the addition of orlistat, the wells were washed twice with PBS. Serum-free RPMI containing 300 μg/ml BSA and insulin/transferrin/selenium supplement was added to the wells, with or without orlistat. The cells were incubated for two hours prior to the addition of 1 μCi of [^14C]-acetate to label newly synthesized fatty acids. After two hours, the labeling medium was removed and the cells were washed with PBS/EDTA and trypsinized The cells pellets were washed twice more with PBS and fatty acids were extracted by the addition of an equal mixture of chloroform-methanol for 30 minutes. The extracted material was dried under a stream of N2 gas and extracted further with water-saturated butanol. The butanol was removed by drying under a stream of N2 gas and labeled fatty acids were detected by scintillation counting.
MDA-MB-435 cells were fed [^14C]-acetate as a precursor, and treated with orlistat.

[5] = system: cellular fatty acid synthesis; experiment: [14C]-acetate incorporation into fatty acids, prostate tumor cells; assay type: cell-based; details: level of orlistat inhibiting about 90% of activity-based labeling of FAS
Method: Studies were performed to determine the effect of orlistat on tumor cells. As a first step, we measured the ability to inhibit the activity of FAS in whole cells. […] . A concentration-dependent inhibition of labeling by FP-Bodipy was evident (FIG. 2; top panel), indicating enzyme inhibition. […] .
Inhibition of fatty acid synthesis by orlistat.

normal HMECs = experiment: Apoptosis by DNA fragmentation ELISA
[6] = recombinant FAS TE, 4-MUH substrate, 30 min pre-incubation at 37 deg.C, read-out: apparent Ki

T1 sequence (P49327 2207-2511 limits assumed): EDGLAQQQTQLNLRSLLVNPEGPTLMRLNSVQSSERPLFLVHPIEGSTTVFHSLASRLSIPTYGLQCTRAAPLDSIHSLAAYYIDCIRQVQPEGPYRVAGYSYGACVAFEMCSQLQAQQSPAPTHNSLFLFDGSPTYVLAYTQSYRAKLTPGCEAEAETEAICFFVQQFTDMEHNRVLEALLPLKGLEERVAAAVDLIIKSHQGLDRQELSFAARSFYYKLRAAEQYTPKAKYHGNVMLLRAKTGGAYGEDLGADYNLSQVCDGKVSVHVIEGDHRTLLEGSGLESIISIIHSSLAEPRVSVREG

`CCCCC[C@@H]1OC(=O)[C@@]1(CCCC)Cc1ccccc1` [8b, (3S,4S)-3-benzyl-3-butyl-4-pentyloxetan-2-one] gave a Ki [1, 6] of 19.2 ± 0.36 µM.
For `O=C1O/C(=C\CC2CCCCC2)[C@@H]1CC1CCCCC1` [2c], the Ki [1, 6] was > 100 µM.
With `CC[C@@H]1C(=O)OC1[C@@H](C)C/C(C)=C/[C@@H](C)C(=O)[C@@H](C)[C@H](O)[C@@H](C)CC` (some centres unmarked) [ebelactone B] the “inhibition of labeling of 31 kDa hydrolase” value [2] was “abolished labeling” and the “inhibition of labeling of 28 kDa hydrolase” value [3] was “little effect”.
For `O=C1O/C(=C\Cc2ccccc2)[C@@H]1Cc1ccccc1` [2d], the Ki [1, 6] was 5.04 ± 2.1 µM.
Work on `CCCCC[C@@H]1OC(=O)[C@@H]1CCCC` (stereo in doubt) [3a, (3R,4S)-3-butyl-4-pentyloxetan-2-one] yielded a Ki [1, 6] of 23.1 ± 4.2 µM.
Molecule `CCCCC[C@@H]1OC(=O)[C@]1(C)CCCC` [8a, (3R,4S)-3-butyl-3-methyl-4-pentyloxetan-2-one] has a Ki [1, 6] of 14.6 ± 4 µM.
`CCCCC[C@H]1OC(=O)[C@@H]1CCCC` [trans-3a, (3R,4R)-3-butyl-4-pentyloxetan-2-one] gave a Ki [1, 6] of 4.01 ± 1.9 µM.
Work on `O=C1O[C@H](CCc2ccccc2)[C@H]1Cc1ccccc1` [trans-3d] yielded a Ki [1] of 3.3 ± 0.2 µM.
With `COC(=O)CC[C@H]1OC(=O)[C@H]1CC(=O)OC` [3e] the Ki [1, 6] was > 100 µM.
Work on `O=C1O[C@H](CCC2CCCCC2)[C@@H]1CC1CCCCC1` [3c] yielded a Ki [1, 6] of 7.7 ± 0.43 µM.
For `CC[C@H](C)[C@@H](O)[C@H](C)C(=O)[C@H](C)/C=C(\C)C[C@H](C)C1OC(=O)[C@H]1C` (some centres unmarked) [ebelactone A], the “inhibition of labeling of 31 kDa hydrolase” value [2] was “far less effective” and the “inhibition of labeling of 28 kDa hydrolase” value [3] was “potent inhibitor”.
Work on `CCCCCCCCCCC[C@@H](C[C@@H]1OC(=O)[C@H]1CCCCCC)OC(=O)[C@H](CC(C)C)NC=O` [Orlistat, tetrahydrolipstatin] yielded an IC50 (HUVEC; VEGF) of 1.25 µM, an IC50 (HUVEC; bFGF) of 1 µM and an IC50 (HUVEC; complete medium) of 4 µM. For the same molecule, the “concentration at which maximum inhibition of proliferation was achieved” value (HUVEC; complete medium, bFGF or VEGF) was ≥ 10 µM, the “maximum inhibition of proliferation” value (HUVEC; stimulated with VEGF) was ~80% and the “maximum inhibition of proliferation” value (HUVEC; stimulated with bFGF) was ~90%. For the same molecule, the “maximum inhibition of proliferation” value (HUVEC; stimulated with complete medium) was ~90%, the EC50 (MDA-MB-435 cells) was ~4 µM and the “reduction of incorporation of [14C]-acetate into cellular fatty acids” value [4] was “approximately 70%”. For the same molecule, the “reduction of total cellular fatty acid synthesis” value [5] was “approximately 70%” and the “apoptotic response across a range of orlistat” value (normal HMECs) was “No effect”.
`O=C1O[C@H](CCc2ccccc2)[C@@H]1Cc1ccccc1` [3d] gave a Ki [1, 6] of 2.5 ± 0.47 µM.
`O=C1O[C@H](CCC2CCCC2)[C@@H]1CC1CCCC1` [3b] gave a Ki [1, 6] of 13.5 ± 7.8 µM.
